A short description of the assay: Second sacrificial agent testing protocol: paste air measurements with DDBS (0.0125 wt %) and rating. For Overall performance rating (second protocol rating): key: 0: Fail; 1: Poor; 2: Good; 3: Preferred; 4: Most preferred. For SA Rating (0-4): key: 0: Fail; 1: Poor; 2: Good; 3: Preferred; 4: Most preferred. An outline of the steps:
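Air entrainment was measured in cement pastes of fixed composition and fluidity. The candidate agent was tested alone at 0.1 wt % in a cement-only paste. It was also tested at 0.05 and 0.1 wt % in a fly ash (B1)-cement paste with DDBS, where air recovery was calculated against the same paste without agent.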

[1] abbreviates: Portland cement paste (PCA), […].
Setting [2] is: sacrificial agent overall rating index.
The mark [3] stands for this setting: B1 FA/cement paste, 0.0125 wt % DDBS, 0.05 wt % SA.
Where [4] appears, read: B1 FA/cement paste, 0.0125 wt % DDBS, 0.10 wt % SA.
Where [5] appears, read: sum of ratings of air entrainment recovery by 0.05% and 0.1% SA, DDBS 0.0125 wt %, 50:50 B1 fly ash:cement paste.

Read-outs that look alike come from different tables or passages of the source.

On to `CC1=CCC2CC1C2(C)C` (stereo not drawn) [Alpha-Pinene], for which, where the note is “B1 FA/cement paste, […]”, the “B1 + 0.0125% DDBS + 0.05% SA (air entrainment)” value (from here on “B1 + 0.0125% DDBS + 0.05% SA”) came out at 2.4 and the “B1 + 0.0125% DDBS + 0.1% SA (air entrainment)” value (from here on “B1 + 0.0125% DDBS + 0.1% SA”) is 2.9. In addition, the “PCA + 0.1% SA (level of air entrainment by the candidate sacrificial agent)” value (“PCA + 0.1% SA” for short) under setting [1] worked out at 0.4. Also, the “SA Rating (0-4)” value under setting [2] amounted to 0.

For `O=C(O)c1ccc(O)cc1` [4-Hydroxybenzoic acid], where the note is “B1 FA/cement paste, […]”, the “B1 + 0.0125% DDBS + 0.05% SA” value is recorded as 2.1 and the “B1 + 0.0125% DDBS + 0.1% SA” value was determined as 2.4. Under setting [1], the “PCA + 0.1% SA” value came to 1.0. The “SA Rating (0-4)” value under setting [2] turned out to be 0.

With `O=C(O)Cc1ccccc1` [Phenyl acetic acid], the “Overall performance rating (second protocol rating)” value (shortened to “Overall performance rating”) is 1. Where the note is “B1 FA/cement paste, […]”, the “B1 + 0.0125% DDBS + 0.05% SA” value is 2.8 and the “B1 + 0.0125% DDBS + 0.1% SA” value amounted to 4.2. For the same molecule, the “PCA + 0.1% SA” value under setting [1] came to 0.2. For the same molecule, the “SA Rating (0-4)” value under setting [2] came to 1.

As to `O=P([O-])([O-])O.[Na+].[Na+]` [Sodium phosphate dibasic], under setting [3], the “B1 + 0.0125% DDBS + 0.05% SA” value is reported as 2.1. Under setting [4], the “B1 + 0.0125% DDBS + 0.1% SA” value was found to be 2.3. Besides, the “PCA + 0.1% SA” value under setting [1] is 0.0. In addition, the “SA Rating (0-4)” value under setting [2] is 0.

Regarding `CCCCO` [1-Butanol], the “B1 + 0.0125% DDBS + 0.05% SA” value was determined as 5.9, the “B1 + 0.0125% DDBS + 0.1% SA” value amounted to 6.5, the “Overall performance rating” value turned out to be 4 and the “PCA + 0.1% SA” value is reported as 1.2. For the same molecule, the “SA Rating (0-4)” value came out at 4.

For the molecule `CC(=O)CC(C)C` [Methyl isobutylketone (MIBK)], under setting [3], the “B1 + 0.0125% DDBS + 0.05% SA” value stood at 5.6. Also, the “B1 + 0.0125% DDBS + 0.1% SA” value under setting [4] stood at 3.9. The “PCA + 0.1% SA” value under setting [1] is recorded as 0.3. Moreover, the “SA Rating (0-4)” value under setting [2] is listed as 2.

Consider `CO` [Methanol], for which, where the note is “B1 FA/cement paste, […]”, the “B1 + 0.0125% DDBS + 0.05% SA” value was determined as 1.9 and the “B1 + 0.0125% DDBS + 0.1% SA” value stood at 2.2. Moreover, the “PCA + 0.1% SA” value under setting [1] came out at 0.6. Besides, the “SA Rating (0-4)” value under setting [2] came to 0.

`C[N+](C)(C)Cc1ccccc1.[OH-]` [Benzyltrimethyl ammonium hydroxide]: the “B1 + 0.0125% DDBS + 0.05% SA” value under setting [3] turned out to be 2.3. Moreover, the “B1 + 0.0125% DDBS + 0.1% SA” value under setting [4] was 3.0. Besides, for the setting “Portland cement paste (PCA), 0.1 wt % SA, no DDBS”, the “PCA + 0.1% SA” value is reported as 1.0. The “SA Rating (0-4)” value under setting [2] turned out to be 0.

Consider `CCC(C)=O` [2-Butanone], for which the “Overall performance rating” value was determined as 1.

As for `CCN(CC)CC` [Triethylamine], the “B1 + 0.0125% DDBS + 0.05% SA” value is on record as 5.2, the “B1 + 0.0125% DDBS + 0.1% SA” value is on record as 5.1, the “Overall performance rating” value turned out to be 4 and the “PCA + 0.1% SA” value was 0.5. The “SA Rating (0-4)” value came to 4.

In the case of Tetramethyl ammonium hydroxide, the “B1 + 0.0125% DDBS + 0.05% SA” value is on record as 2.5, the “B1 + 0.0125% DDBS + 0.1% SA” value amounted to 2.9, the “PCA + 0.1% SA” value is on record as 0.1 and the “SA Rating (0-4)” value is 0.

For the molecule Polypropylene glycol 425, the “Overall performance rating” value under setting [5] is reported as 4.

For `CCCCCCCCCCCC(=O)OC` [Methyllaurate], the “B1 + 0.0125% DDBS + 0.05% SA” value under setting [3] is 4.6. Besides, the “B1 + 0.0125% DDBS + 0.1% SA” value under setting [4] is 2.8. In addition, the “PCA + 0.1% SA” value under setting [1] is on record as 1.0. For the same molecule, the “SA Rating (0-4)” value under setting [2] turned out to be 1. Further, the “Overall performance rating” value under setting [5] was 1.

With `O=S(=O)([O-])c1ccc2cc(S(=O)(=O)[O-])ccc2c1.[Na+].[Na+]` [2,6-naphthalene disulfonate Na], the “B1 + 0.0125% DDBS + 0.05% SA” value amounted to 2.3, the “B1 + 0.0125% DDBS + 0.1% SA” value came out at 3.0, the “PCA + 0.1% SA” value is 0.0 and the “SA Rating (0-4)” value came out at 0.

Source of the values: US7892350B2, “Sacrificial agents for fly ash concrete” (Boral Material Technologies Inc., priority 2003, dated 2011).
